Laboratory results reported in patent publication US20250353891A1 (MEDIMMUNE LIMITED, priority 2022, published 2025).
Starred links: 1 amine or outer side, 2 acyl side, 3 side chain; linkers in the order of their positions; H or OH if unused. Non-standard residues stand in square brackets, D forms with d. Residues, ends and D or L forms follow the SMILES beside them. Groups on a side chain read outwards from the residue. *: point of attachment. PEG12 = NCCOCCOCCOCCOCCOCCOCCOCCOCCOCCOCCOCCOCCC(=O)O; Dip = N[C@H](C(=O)O)C(c1ccccc1)c1ccccc1; γGlu = O=C(O)[C@H](CCC(=O)[*:2])N[*:1]; Stearoyl = CCCCCCCCCCCCCCCCCC(=O)*; Palmitoyl = CCCCCCCCCCCCCCCC(=O)*; αMeF = C[C@](N)(Cc1ccccc1)C(=O)O; PEG2 = NCCOCCOCCC(=O)O; Aib = CC(C)(N)C(=O)O

How the values were obtained:
[1] = molecular target: human GLP-1 receptor (hGLP-1R) (Homo sapiens, UniProt P43220); experiment: cAMP production (HTRF) in CHO cells expressing hGLP-1R; type: cell-based; design: expressed in transfected cells; settings: for EC50: Table 6, peptides modified at position 17, cAMP in CHO hGLP-1R cells, geometric mean, read-out: hGLP-1R EC50; for % Relative Potency Ratio: Table 6, % GLP-1R activity relative to GLP-1 / % GlucR activity relative to glucagon
In short: (§1)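 Potency values represent EC50 from 4-parameter logistic curves of HTRF % Delta F signal. Receptor-expressing CHO cells (hGCGR 2×10^5 cells/mL, hGLP-1R 1×10^5 cells/mL) were exposed for 30 min at room temperature before two-step cAMP detection.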

[2] = molecular target: human glucagon receptor (hGCGR) (Homo sapiens, UniProt P47871); experiment: cAMP production (HTRF) in CHO cells expressing hGCGR; type: cell-based; design: expressed in transfected cells; settings: Table 6, peptides modified at position 17; cAMP in CHO hGCGR cells; geometric mean; read-out: hGluc-R EC50
In short: as §1

Chain of human glucagon receptor (hGCGR) (P47871 26-477): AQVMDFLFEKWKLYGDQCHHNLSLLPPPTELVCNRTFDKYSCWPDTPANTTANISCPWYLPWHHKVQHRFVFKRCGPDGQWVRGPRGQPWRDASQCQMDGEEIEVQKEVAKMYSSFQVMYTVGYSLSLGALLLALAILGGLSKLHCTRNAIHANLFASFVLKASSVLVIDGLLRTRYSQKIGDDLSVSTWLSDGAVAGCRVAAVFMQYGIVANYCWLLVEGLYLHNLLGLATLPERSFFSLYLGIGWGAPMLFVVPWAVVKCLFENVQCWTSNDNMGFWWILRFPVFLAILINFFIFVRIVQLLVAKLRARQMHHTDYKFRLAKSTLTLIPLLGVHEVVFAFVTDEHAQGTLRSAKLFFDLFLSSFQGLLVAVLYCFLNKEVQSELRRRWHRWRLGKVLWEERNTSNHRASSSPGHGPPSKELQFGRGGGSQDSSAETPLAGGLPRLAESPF
Chain of human GLP-1 receptor (hGLP-1R) (P43220 24-463): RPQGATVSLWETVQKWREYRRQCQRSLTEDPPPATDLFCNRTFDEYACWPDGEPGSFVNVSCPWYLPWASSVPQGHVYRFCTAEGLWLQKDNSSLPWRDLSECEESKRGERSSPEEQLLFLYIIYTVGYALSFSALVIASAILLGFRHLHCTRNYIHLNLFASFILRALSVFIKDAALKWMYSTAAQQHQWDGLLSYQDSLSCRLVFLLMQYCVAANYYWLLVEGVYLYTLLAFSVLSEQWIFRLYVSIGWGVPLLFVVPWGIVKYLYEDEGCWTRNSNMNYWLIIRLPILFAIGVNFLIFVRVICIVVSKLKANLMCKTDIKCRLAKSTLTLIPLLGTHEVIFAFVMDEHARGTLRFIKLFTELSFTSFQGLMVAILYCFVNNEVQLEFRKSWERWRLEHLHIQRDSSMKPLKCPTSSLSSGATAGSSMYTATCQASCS

`CCCCCCCCCCCCCCCCCC(=O)N[C@@H](CCC(=O)N[C@@H](CCC(=O)NCCOCCOCCOCCOCCOCCOCCOCCOCCOCCOCCOCCOCCC(=O)NCCCC[C@H](NC(=O)[C@H](CO)NC(=O)[C@H](CC(=O)O)NC(=O)[C@H](CC(C)C)NC(=O)[C@@H](NC(=O)[C@H](CCCCN)NC(=O)[C@H](CO)NC(=O)[C@@H](NC(=O)[C@H](CC(=O)O)NC(=O)[C@H](CO)NC(=O)[C@@H](NC(=O)[C@](C)(Cc1ccccc1)NC(=O)[C@H](CO)NC(=O)CNC(=O)[C@H](CCC(N)=O)NC(=O)[C@H](CO)NC(=O)[C@@H](N)Cc1c[nH]cn1)[C@@H](C)O)C(C)C)C(c1ccccc1)c1ccccc1)C(=O)N[C@@H](C)C(=O)N[C@@H](C)C(=O)N[C@@H](CCC(N)=O)C(=O)N[C@@H](CC(=O)O)C(=O)N[C@@](C)(Cc1ccccc1)C(=O)N[C@H](C(=O)N[C@@H](CCC(=O)O)C(=O)NC(C)(C)C(=O)N[C@H](C(=O)N[C@H](C(=O)N[C@@H](CC(N)=O)C(=O)N[C@H](C(N)=O)[C@@H](C)O)[C@@H](C)CC)[C@@H](C)CC)C(C)C)C(=O)O)C(=O)O` [Peptide 58] (H-HSQGS[αMeF]TSDVSK[Dip]LDSK([PEG12-γGlu-γGlu-Stearoyl])AAQD[αMeF]VE[Aib]IINT-NH2; N-terminus assumed) was tested, and the EC50 [1] was 3.9 pM, the “% Relative Potency Ratio” value [1] was 5.7 and the EC50 [2] was 11.3 pM.
With `CCCCCCCCCCCCCCCCCC(=O)NCCOCCOCCC(=O)NCCOCCOCCC(=O)N[C@@H](CCC(=O)N[C@@H](CCC(=O)NCCCC[C@H](NC(=O)[C@H](CO)NC(=O)[C@H](CC(=O)O)NC(=O)[C@H](CC(C)C)NC(=O)[C@@H](NC(=O)[C@H](CCCCN)NC(=O)[C@H](CO)NC(=O)[C@@H](NC(=O)[C@H](CC(=O)O)NC(=O)[C@H](CO)NC(=O)[C@@H](NC(=O)[C@](C)(Cc1ccccc1)NC(=O)[C@H](CO)NC(=O)CNC(=O)[C@H](CCC(N)=O)NC(=O)[C@H](CO)NC(=O)[C@@H](N)Cc1c[nH]cn1)[C@@H](C)O)C(C)C)C(c1ccccc1)c1ccccc1)C(=O)N[C@@H](C)C(=O)N[C@@H](C)C(=O)N[C@@H](CCC(N)=O)C(=O)N[C@@H](CC(=O)O)C(=O)N[C@@](C)(Cc1ccccc1)C(=O)N[C@H](C(=O)N[C@@H](CCC(=O)O)C(=O)NC(C)(C)C(=O)N[C@H](C(=O)N[C@H](C(=O)N[C@@H](CC(N)=O)C(=O)N[C@H](C(N)=O)[C@@H](C)O)[C@@H](C)CC)[C@@H](C)CC)C(C)C)C(=O)O)C(=O)O` [Peptide 59] (H-HSQGS[αMeF]TSDVSK[Dip]LDSK([γGlu-γGlu-PEG2-PEG2-Stearoyl])AAQD[αMeF]VE[Aib]IINT-NH2; N-terminus assumed) the EC50 [1] was 6.18 pM, the “% Relative Potency Ratio” value [1] was 9.1 and the EC50 [2] was 28.4 pM.
For `CCCCCCCCCCCCCCCCCC(=O)NCCOCCOCCC(=O)N[C@@H](CCC(=O)NCCOCCOCCC(=O)N[C@@H](CCC(=O)NCCCC[C@H](NC(=O)[C@H](CO)NC(=O)[C@H](CC(=O)O)NC(=O)[C@H](CC(C)C)NC(=O)[C@@H](NC(=O)[C@H](CCCCN)NC(=O)[C@H](CO)NC(=O)[C@@H](NC(=O)[C@H](CC(=O)O)NC(=O)[C@H](CO)NC(=O)[C@@H](NC(=O)[C@](C)(Cc1ccccc1)NC(=O)[C@H](CO)NC(=O)CNC(=O)[C@H](CCC(N)=O)NC(=O)[C@H](CO)NC(=O)[C@@H](N)Cc1c[nH]cn1)[C@@H](C)O)C(C)C)C(c1ccccc1)c1ccccc1)C(=O)N[C@@H](C)C(=O)N[C@@H](C)C(=O)N[C@@H](CCC(N)=O)C(=O)N[C@@H](CC(=O)O)C(=O)N[C@@](C)(Cc1ccccc1)C(=O)N[C@H](C(=O)N[C@@H](CCC(=O)O)C(=O)NC(C)(C)C(=O)N[C@H](C(=O)N[C@H](C(=O)N[C@@H](CC(N)=O)C(=O)N[C@H](C(N)=O)[C@@H](C)O)[C@@H](C)CC)[C@@H](C)CC)C(C)C)C(=O)O)C(=O)O` [Peptide 60] (H-HSQGS[αMeF]TSDVSK[Dip]LDSK([γGlu-PEG2-γGlu-PEG2-Stearoyl])AAQD[αMeF]VE[Aib]IINT-NH2; N-terminus assumed), the EC50 [1] was 5.16 pM, the “% Relative Potency Ratio” value [1] was 8.1 and the EC50 [2] was 21.1 pM.
With `CCCCCCCCCCCCCCCCCC(=O)N[C@@H](CCC(=O)NCCOCCOCCC(=O)N[C@@H](CCC(=O)NCCOCCOCCC(=O)NCCCC[C@H](NC(=O)[C@H](CO)NC(=O)[C@H](CC(=O)O)NC(=O)[C@H](CC(C)C)NC(=O)[C@@H](NC(=O)[C@H](CCCCN)NC(=O)[C@H](CO)NC(=O)[C@@H](NC(=O)[C@H](CC(=O)O)NC(=O)[C@H](CO)NC(=O)[C@@H](NC(=O)[C@](C)(Cc1ccccc1)NC(=O)[C@H](CO)NC(=O)CNC(=O)[C@H](CCC(N)=O)NC(=O)[C@H](CO)NC(=O)[C@@H](N)Cc1c[nH]cn1)[C@@H](C)O)C(C)C)C(c1ccccc1)c1ccccc1)C(=O)N[C@@H](C)C(=O)N[C@@H](C)C(=O)N[C@@H](CCC(N)=O)C(=O)N[C@@H](CC(=O)O)C(=O)N[C@@](C)(Cc1ccccc1)C(=O)N[C@H](C(=O)N[C@@H](CCC(=O)O)C(=O)NC(C)(C)C(=O)N[C@H](C(=O)N[C@H](C(=O)N[C@@H](CC(N)=O)C(=O)N[C@H](C(N)=O)[C@@H](C)O)[C@@H](C)CC)[C@@H](C)CC)C(C)C)C(=O)O)C(=O)O` [Peptide 61] (H-HSQGS[αMeF]TSDVSK[Dip]LDSK([PEG2-γGlu-PEG2-γGlu-Stearoyl])AAQD[αMeF]VE[Aib]IINT-NH2; N-terminus assumed) the EC50 [1] was 4.12 pM, the “% Relative Potency Ratio” value [1] was 4.6 and the EC50 [2] was 9.55 pM.
With `CCCCCCCCCCCCCCCC(=O)N[C@@H](CCC(=O)N[C@@H](CCC(=O)NCCOCCOCCC(=O)NCCOCCOCCC(=O)NCCCC[C@H](NC(=O)[C@H](CO)NC(=O)[C@H](CC(=O)O)NC(=O)[C@H](CC(C)C)NC(=O)[C@@H](NC(=O)[C@H](CCCCN)NC(=O)[C@H](CO)NC(=O)[C@@H](NC(=O)[C@H](CC(=O)O)NC(=O)[C@H](CO)NC(=O)[C@@H](NC(=O)[C@](C)(Cc1ccccc1)NC(=O)[C@H](CO)NC(=O)CNC(=O)[C@H](CCC(N)=O)NC(=O)[C@H](CO)NC(=O)[C@@H](N)Cc1c[nH]cn1)[C@@H](C)O)C(C)C)C(c1ccccc1)c1ccccc1)C(=O)N[C@@H](C)C(=O)N[C@@H](C)C(=O)N[C@@H](CCC(N)=O)C(=O)N[C@@H](CC(=O)O)C(=O)N[C@@](C)(Cc1ccccc1)C(=O)N[C@H](C(=O)N[C@@H](CCC(=O)O)C(=O)NC(C)(C)C(=O)N[C@H](C(=O)N[C@H](C(=O)N[C@@H](CC(N)=O)C(=O)N[C@H](C(N)=O)[C@@H](C)O)[C@@H](C)CC)[C@@H](C)CC)C(C)C)C(=O)O)C(=O)O` [Peptide 64] (H-HSQGS[αMeF]TSDVSK[Dip]LDSK([PEG2-PEG2-γGlu-γGlu-Palmitoyl])AAQD[αMeF]VE[Aib]IINT-NH2; N-terminus assumed) the EC50 [1] was 2.57 pM, the “% Relative Potency Ratio” value [1] was 2.4 and the EC50 [2] was 3.06 pM.
`CCCCCCCCCCCCCCCCCC(=O)N[C@@H](CCC(=O)N[C@@H](CCC(=O)NCCOCCOCCC(=O)NCCOCCOCCC(=O)NCCCC[C@H](NC(=O)[C@H](CO)NC(=O)[C@H](CC(=O)O)NC(=O)[C@H](CC(C)C)NC(=O)[C@@H](NC(=O)[C@H](CCCCN)NC(=O)[C@H](CO)NC(=O)[C@@H](NC(=O)[C@H](CC(=O)O)NC(=O)[C@H](CO)NC(=O)[C@@H](NC(=O)[C@](C)(Cc1ccccc1)NC(=O)[C@H](CO)NC(=O)CNC(=O)[C@H](CCC(N)=O)NC(=O)C(C)(C)NC(=O)[C@@H](N)Cc1c[nH]cn1)[C@@H](C)O)C(C)C)C(c1ccccc1)c1ccccc1)C(=O)N[C@@H](C)C(=O)N[C@@H](C)C(=O)N[C@@H](CCC(N)=O)C(=O)N[C@@H](CC(=O)O)C(=O)N[C@@](C)(Cc1ccccc1)C(=O)N[C@H](C(=O)N[C@@H](CCC(N)=O)C(=O)NC(C)(C)C(=O)N[C@H](C(=O)N[C@@H](C)C(=O)N[C@@H](CC(N)=O)C(N)=O)[C@@H](C)CC)C(C)C)C(=O)O)C(=O)O` [Peptide 66] (H-H[Aib]QGS[αMeF]TSDVSK[Dip]LDSK([PEG2-PEG2-γGlu-γGlu-Stearoyl])AAQD[αMeF]VQ[Aib]IAN-NH2; N-terminus assumed) was tested, and the EC50 [1] was 1.52 pM, the “% Relative Potency Ratio” value [1] was 8.3 and the EC50 [2] was 6.43 pM.
In the case of `CCCCCCCCCCCCCCCC(=O)N[C@@H](CCC(=O)NCCOCCOCCC(=O)NCCOCCOCCC(=O)NCCCC[C@H](NC(=O)[C@H](CO)NC(=O)[C@H](CC(=O)O)NC(=O)[C@H](CC(C)C)NC(=O)[C@@H](NC(=O)[C@H](CCCCN)NC(=O)[C@H](CO)NC(=O)[C@@H](NC(=O)[C@H](CC(=O)O)NC(=O)[C@H](CO)NC(=O)[C@@H](NC(=O)[C@](C)(Cc1ccccc1)NC(=O)[C@H](CO)NC(=O)CNC(=O)[C@H](CCC(N)=O)NC(=O)C(C)(C)NC(=O)[C@@H](N)Cc1c[nH]cn1)[C@@H](C)O)C(C)C)C(c1ccccc1)c1ccccc1)C(=O)N[C@@H](C)C(=O)N[C@@H](C)C(=O)N[C@@H](CCC(N)=O)C(=O)N[C@@H](CC(=O)O)C(=O)N[C@@](C)(Cc1ccccc1)C(=O)N[C@H](C(=O)N[C@@H](CCC(N)=O)C(=O)NC(C)(C)C(=O)N[C@H](C(=O)N[C@@H](C)C(=O)N[C@@H](CC(N)=O)C(N)=O)[C@@H](C)CC)C(C)C)C(=O)O` [Peptide 67] (H-H[Aib]QGS[αMeF]TSDVSK[Dip]LDSK([PEG2-PEG2-γGlu-Palmitoyl])AAQD[αMeF]VQ[Aib]IAN-NH2; N-terminus assumed), the EC50 [1] is reported as 2.43 pM, the “% Relative Potency Ratio” value [1] is reported as 7.7 and the EC50 [2] is reported as 9.49 pM.
